Counter-ions that a name gives are not always drawn. No end group written: not given here.
Experiments:
[1] = test system: embryonic hippocampal primary neurons; experiment: Neuronal outgrowth assay with immunocytochemistry (anti-Tau, anti-MAP2, DAPI); assay type: cell-based, Sprague-Dawley rats; conditions: for lengths of the first and second order axon branches: p<0.01 or p<0.05; for axon outgrowth: L-form peptide 10^−9 M, treatment at 3 DIV for 3 days, vs PBS negative control
Method: In order to culture embryonic hippocampal primary neurons, pregnant Sprague-Dawley rats were purchased from the National Laboratory Center in Taiwan (Taipei, Taiwan). The hippocampal tissue from the embryos of the Sprague-Dawley rats (embryonic day 19, E19) was dissociated with enzyme and plated onto poly-L-lysine-coated coverslips with a minimal essential medium containing 5% calf serum, 5% horse serum, and 50 ng/mL insulin-transferrin-selenite (Sigma-Aldrich, St. Louis, Mo., USA). After plating, the medium was replaced with 2% of B27-neurobasal medium (Invitrogen, Carlsbad, Calif., USA) containing 0.5 mM glutamine and […]. Embryonic hippocampal primary neurons were incubated at 37° C., 5% CO2 for further experimental treatment.
Primary hippocampal neuron cultures at 3 days in vitro (at DIV3) were treated with 10^−9 M, 10^−12M, 10^−15 M C5 peptide (L-form), 10^−9 M, 10^−12M, 10^−15 M C6 peptide (L-form), 10^−9 M P1 peptide (L-form), 10^−9 M P2 peptide (L-form), 10^−9 M P3 peptide (L-form), 10^−9 M P4 peptide (L-form), 10^−9 M P5 peptide (L-form), 10^−9 M P6 peptide (L-form), 10^−9 M C5 peptide (D-form), and 10^−12 C6 peptide (D-form), respectively, for 3 days, followed by immunocytochemistry. Embryonic hippocampal primary neurons of negative control were treated with PBS. Each treatment condition was run in 3 replicates.
Cultured hippocampal neurons were fixed with 4% paraformaldehyde and permeablized with 0.1% Triton X-100 at room temperature (RT). Cultures were then incubated in the primary rabbit anti-Tau antibody (a selective marker for axons, Millipore, Mass., USA) and the primary mouse anti-MAP2 antibody (microtubule-associated protein-2, which is a selective marker for dendrites, Millipore) for 1 hour at RT. After wash, cells were incubated with Alexa Fluor® 488 goat anti-rabbit secondary antibody (green fluorescence, Abcam Plc., UK) and Alexa Fluor® 594 goat anti-mouse secondary antibody (red fluorescence, Abcam Plc.) for 1 hour at RT. Then, nuclei were stained with 4′,6-diamidino-2-phenylindole (DAPI, blue fluorescence, Vector Laboratories, USA). After that, coverslips were mounted on the cells, and images were obtained by using an Axio Observer D1 microscope (Zeiss, Jena, Germany) and analyzed by ImageJ software (Inage Processing and Analysis in Java, National Institutes of Health, USA). Neuronal process longer than 10 μm is defined as a neurite.
An axon extending from the cell body of a neuron is defined as a first order axon branch; an axon extending from a first order axon branch is defined as a second order axon branch, and an axon extending from a second order axon branch is defined as a third order axon branch, et cetera (FIG. 3A). Only axons longer than 10 μm are counted.

[2] = test system: MPTP-mouse model of Parkinson's disease; experiment: Rotarod performance test; assay type: in vivo, C57BL/6 male mice; conditions: MPTP 30 mg/kg i.p. alone; negative control 778.5 seconds; p<0.01
Method: C57BL/6 male mice at the age of 5 weeks were randomly divided into 3 groups and intraperitoneally injected with PBS (negative control), MPTP (30 mg/kg)(MPTP group), and C6 peptide (10.7 μg/kg) and MPTP (30 mg/kg)(C6+MPTP group), respectively. The injection volume was calculated based on the body weight of each mouse everyday. Mice of the C6+MPTP group were injected C6 peptide for 3 weeks prior to injection of C6 peptide and MPTP for 1 week, and then subjected to rotarod performance test.
Rotarod performance tests were conducted to measure the coordination of mice. Mice were placed on the rod and ran at 2 rpm constant speed for 2 minutes in order to adapt to the rod. After that, rod was started to accelerate to 20 rpm (within 5 minutes) and sustained for 15 minutes. The time (latency) at which each mouse fell off the rod was recorded.

[3] = test system: embryonic hippocampal primary neurons; experiment: Cell viability (MTT) assay for neurotoxicity; assay type: cell-based, Sprague-Dawley rats; conditions: 10^−3 M, 10^−6 M, 10^−9 M, 10^−12M for 24 hours from 1 DIV; p>0.05
Method: At the first day in vitro (1 DIV), embryonic hippocampal primary neurons were treated with 10^−3 M, 10^−6 M, 10^−9 M, 10^−12M C5 peptide or C6 peptide, respectively, for 24 hours, followed by cell viability assay.
Cell viability was evaluated by an MTT (3-(4,5-cimethylthiazol-2-yl)-2,5-diphenyl tetrazolium bromide) assay. Cells were incubated with an MTT reagent (0.5 mg/mL, Sigma-Aldrich, USA) at 37° C. for 1 hour. The MTT solution was removed, and DMSO was added to the wells shaken at room temperature for 1 hour. The amount of MTT formazan product was quantified by measuring its absorbance at 570 and 630 nm by using an ELISA plate reader (SpectraMax M2 Microplate Readers, Molecular Devices, Sunnyvale, Calif., USA).

[4] = test system: D-Galactose induced aging model rats; experiment: Water maze learning, D-galactose induced aging; assay type: in vivo, Sprague-Dawley rats; conditions: D-galactose 150 mg/kg/day i.p. alone for 9 weeks
Method: (§1) A plastic circular pool 183 cm in diameter was filled with water (25±2° C.). A circular platform was placed at a specific location from the edge of the pool and submerged below the water surface. Water was made cloudy by adding toxic-free dye. Distinctive visual cues were set on the wall. For spatial learning, animals were subjected to 3 trials per day, with one trial early in the morning, one trial at noon, and another in the late afternoon. The training procedure lasted 4 days, and a total of 12 trials were given. The rats were positioned at different starting points spaced equally around the perimeter of the pool in random order. They had 60 seconds to swim in the pool. If a rat could not find the platform, it was guided to the platform and was allowed to remain there for 20 seconds. The time each animal took to reach the platform was recorded as the escape latency. A probe trial of 60 seconds was given on Day 5 to test their memory retention. The rats were placed in the pool with the platform removed, and the time they spent in each quadrant (Quadrants 1, 2, 3, and 4) was recorded. The longer a rat stayed in the target quadrant (quadrant 4), the better memory the rat had. At the end of the experiment, the rats were subjected to visible platform learning. […] The time the rats found the platform was recorded. […]

[5] = test system: Sco-induced amnesia animal model; experiment: Step-down passive avoidance test, scopolamine-induced memory deficits; assay type: in vivo, Sprague-Dawley rats; conditions: scopolamine 1.5 mg/kg/day alone; 1 day after footshock; vs control
Method: Animals were familiar to the instrument 24 hours before training. Next day rats placed on the elevated platform situated in the center of the floor of the passive avoidance test box and the latency to stepping down recorded. On the third day of the experiment immediately after stepping down, animals received mild electric shock (3V, 3 seconds duration, D.C.) through the grid floor and then returned to their home cages. On the following day (as 24 hours retention interval) rats placed on the platform again while no electric shock was given to them. Latency to step down recorded. If the rat remained on the platform for the 5 minutes, it assigned a maximum score of 300 seconds.
Rats were randomly divided into negative control group, Scopolamine only group, (C5+Sco) group and (C6+Sco) group, and rats in the four groups were injected with vehicle (negative control group and scopolamine only group), C5 peptide (54 μg/kg/day, C5+Sco group), and C6 peptide (5.4 μg/kg/day, C6+Sco group), respectively, for 14 consecutive days. After that, rats in the 4 groups were intraperitoneally injected with vehicle (negative control group), vehicle and scopolamine (1.5 mg/kg/day)(scopolamine only group), C5 peptide (54 μg/kg/day) and scopolamine (1.5 mg/kg/day) (C5+Sco group), and C6 peptide (5.4 μg/kg/day) and scopolamine (1.5 mg/kg/day) (C6+Sco group), respectively, for 7 consecutive days. […]

[6] = test system: Sco-induced amnesia animal model; experiment: Water maze learning, scopolamine-induced memory impairment; assay type: in vivo, Sprague-Dawley rats; conditions: scopolamine 1.5 mg/kg/day i.p. alone; vs negative control; P<0.01
Method: as §1

[7] = test system: Sco-induced amnesia animal model; experiment: Novel object recognition learning, scopolamine-induced memory deficits; assay type: in vivo, Sprague-Dawley rats; conditions: scopolamine 1.5 mg/kg/day alone; vs time on left object; P>0.05
Method: During familiarization, rats were allowed to explore 2 identical objects in an open field box (90×70×60 cm) for 5 min. The criteria used for exploration were a distance less than 1.5 cm between the rat and the object or direct contact with the object. During the retention test given 3 hours and 24 hours later, the rats were returned to the same box, but one of the familiar objects was replaced with a novel object of approximately the same size. The time that each rat spent exploring the 2 objects during a 5-min period was recorded. The rats placed in the open field box without any objects for 5 min were assigned to the non-trained group.
Both C5 peptide and C6 peptide ameliorate scopolamine-induced memory deficits. […] Then, behavioral experiments were conducted, and the injection program with scopolamine continued through the experimentation. The injection volume was 1 μL/g of body weight. The scopolamine injection was performed 30 minutes before behavioral experiments every morning, and the C5 peptide or C6 peptide injection was conducted once daily at 5:00 PM 1 day prior. […] Three (3) hours, 8 hours and 24 hours after, a novel object (NO) replaced the RO.

Question: For “NVAPQ (Petide for enhancing neuronal outgrowth) [P5 peptide]”, which “lengths of the first and second order axon branches” value ([1]; 10^−9 M, vs negative control) is on record?
Answer: The value was “longer”.

Question: And the axon outgrowth [1]?
Answer: The axon outgrowth was “enhanced axon outgrowth”.

Question: How did the “average number of second order axon branches” value ([1]; 10^−9 M, negative control 2.5, p<0.01) turn out when “NWLPQ (Petide for enhancing neuronal outgrowth) [P6 peptide]” was run?
Answer: The value was 4.2.

Question: What about the “lengths of the first and second order axon branches” value ([1]; 10^−9 M, vs negative control) of the same molecule?
Answer: Its value is “longer”.

Question: And the “lengths of the third order axon branches” value ([1]; 10^−9 M, vs negative control, p<0.05)?
Answer: The value was “significantly longer”.

Question: What about the axon outgrowth [1] of the same molecule?
Answer: Its axon outgrowth is “enhanced axon outgrowth”.

Question: Which “lengths of the first and second order axon branches” value ([1]; 10^−9 M, vs negative control) does the source give for “NLMPQ (Petide for enhancing neuronal outgrowth) [P4 peptide]” here?
Answer: Its value is “longer”.

Question: What about the axon outgrowth [1] of the same molecule?
Answer: The axon outgrowth was “enhanced axon outgrowth”.

Question: With “NIKPQ (Petide for enhancing neuronal outgrowth) [P3 peptide]” as the molecule, how does the “lengths of the first and second order axon branches” value ([1]; 10^−9 M, vs negative control) read?
Answer: Its value is “longer”.

Question: And the axon outgrowth [1]?
Answer: Its axon outgrowth is “enhanced axon outgrowth”.

Question: Which “average latency to fall” value [2] does the source give for `CN1CC=C(c2ccccc2)CC1` [MPTP, 1-methyl-4-phenyl-1,2,3,6-tetrahydropyridine] here?
Answer: The value was 159.8 s.

Question: Which “neurotoxic effect (cell viability, MTT)” value [3] does the source give for NPSPQ [C6 peptide, NPSPQ] here?
Answer: Its value is “no significant neurotoxic effect”.

Question: What does the source list for “NFEPQ (Petide for enhancing neuronal outgrowth) [P1 peptide]”?
Answer: lengths of the first and second order axon branches ([1]; 10^−9 M, vs negative control): longer; axon outgrowth [1]: enhanced axon outgrowth

Question: How did the “neurotoxic effect (cell viability, MTT)” value [3] turn out when NAIPQ [C5 peptide, NAIPQ] was run?
Answer: Its value is “no significant neurotoxic effect”.

Question: `O=C[C@H](O)[C@@H](O)[C@@H](O)[C@H](O)CO` [D-Galactose, D-(+)-galactose] was tested. Which “average escape latency in finding the hidden platform” value [4] did it give?
Answer: Its value is 53.06 s.

Question: With “NMYPQ (Petide for enhancing neuronal outgrowth) [P2 peptide]” as the molecule, how does the “lengths of the first and second order axon branches” value ([1]; 10^−9 M, vs negative control) read?
Answer: Its value is “longer”.

Question: And the axon outgrowth [1]?
Answer: Its axon outgrowth is “enhanced axon outgrowth”.

Question: Which “stepping down (jumping error number)” value [5] does the source give for `CN1[C@@H]2C[C@@H](OC(=O)[C@H](CO)c3ccccc3)C[C@H]1[C@@H]1O[C@@H]12` [Sco, Scopolamine hydrochloride] here?
Answer: Its value is “stepped down more”.

Question: And the “escape latency in finding the hidden platform” value [6]?
Answer: Its value is “longer escape latency”.

Question: What about the “exploratory preference for the novel object (NO)” value [7] of the same molecule?
Answer: Its value is “no exploratory preference for the NO”.

Source: patent US10407465B2, “Peptides enhancing neuronal outgrowth and application thereof” (Schweitzer Biotech Company Ltd., priority 2014, dated 2019)
